Laboratory results reported in US12012410B2, “Substituted pyrazolo[1,5-a]pyrazines for spinal muscular atrophy” (REBORNA BIOSCIENCES, INC., priority 2018, dated 2024).

System: FL-SMN mRNA (SMN transcript containing exons 7 and 8)
Assay: Live-cell assay to measure changes in FL-SMN mRNA levels (qPCR) after exposure to the compounds
Assay type: cell-based, human
Conditions: fibroblasts derived from patients SMA (GM03813); 24 hours incubation
Method: In this example, each test compound was administered to cultured cells, and changes in the expression levels of mRNA transcripts of SMN, i.e., FL-SMN containing exons 7 and 8 and Delta7 with exon 7 skipped, were examined using PCR.
Fibroblasts derived from patients SMA (GM03813) (Coriell Cell Repositories) were cultured with passages using DMEM (High Glucose) (Life Technologies) supplemented with 10% FBS (Life Technologies). Cells were seeded in tissue-culture-treated 96-well plates (Corning) at 1.5 or 0.5×10^4 cells/well in 100 μL of medium. The cells were incubated in 5% CO2 for 6 hours, and the medium was replaced with 100 μL of medium (with DMSO, 0.1% final concentration) containing each of the compounds given in the Examples. After additional incubation for 24 hours under the same conditions, the cells were washed once with D-PBS(—) (Wako) and 25 μL/well of the lysis solution (with gDNA Remove) contained in the SuperPrep (registered trademark) Cell Lysis & RT Kit for qPCR (Toyobo life science) was added according to the manufacturer's instructions so that the cells were lysed and the genomic DNA was degraded. Furthermore, 5 μL of the STOP solution (with RNase Inhibitor) contained in the kit was added to provide RNA-containing solutions. Six microliters of the RNA-containing solutions were each mixed with 14 μL of a reverse transcription solution containing transcriptase together with dNTP, random primers and an oligodT primer. Reverse transcription was performed at 37° C. (15 min), 50° C. (5 min), and 98° C. (5 min), to give total cDNAs. The total cDNAs were diluted 30-fold with Ultra-pure water (Invitrogen) to measure the expression levels of FL-SMN, delta7, and GAPDH. For quantitative PCR (qPCR), a PCR solution was prepared according to the instructions of the manufacturer of the THUNDERBIRD (registered trademark) Probe qPCR Mix (Toyobo life science). Five microliters of the diluted total cDNA solutions and oligo DNA standard solutions, each containing either 001-Standard FL-SMN (SEQ ID NO. 1) or 002-Standard delta7 (SEQ ID NO. 2), were each mixed with 10 μL of each of the PCR solutions containing a qPCR probe, primers, and PCR enzyme. […] The oligoDNA standard solutions were prepared as those containing either of 5×10^8, 5×10^7, 5×10^6, 5×10^5, 5×10^4, 5×10^3, 5×10^2, 5×10, 5, or 0 copies. For the oligo DNA standards, primers, and probes, oligonucleotides synthesized by Integrated DNA Technologies, Inc. (IDT) were used. […] FIGS. 3B and 3D show their detection mechanisms. The final concentrations of the primers and probes added were 0.4 μM and 0.15 μM, respectively. The qPCR was performed using the following conditions on a ViiA7 instrument (Applied Biosystems): first stage: 95° C. (1 min)→second stage: 95° C. (15 sec)→third stage: 60° C. (1 min)→40 repeated cycles of the second and third stages. The GAPDH mRNA was used as the internal control, and the commercially available 20×gene expression PCR assay (Life Technologies, 4326317E, Hs99999905_ml) and Standard GAPDH (SEQ ID NO. 7) (see FIG. 1) was used to determine the number of copies of this gene. The measurement values obtained for the samples to be measured were standardized against the respective value obtained for GAPDH.
Using the above-mentioned assays, the activities of the compounds of the Examples were evaluated. Specifically, the percentages of the FL-SMN and delta7 values obtained using DMSO without the compounds and standardized against GAPDH were set as 100% and those of the FL-SMN and delta7 values obtained at the time of administration of the compounds and standardized against GAPDH were calculated. […]

## COc1cccc(-c2nc3ccc(C4CCN(C)CC4)cc3c(=O)[nH]2)c1F [Example 47, 2-(2-fluoro-3-methoxyphenyl)-6-(1-methylpiperidin-4-yl)quinazolin-4(3H)-one]
  Percentage of increase (FL-SMN mRNA standardized against GAPDH, DMSO control set as 100%): * (equal to or higher than 100% but lower than 120%)

## COc1ccnc(-c2nc3ccc(C4CCN(C)CC4)cc3c(=O)[nH]2)c1 [Example 48, 2-(4-Methoxypyridin-2-yl)-6-(1-methylpiperidin-4-yl)quinazolin-4(3H)-one]
  Percentage of increase (FL-SMN mRNA standardized against GAPDH, DMSO control set as 100%): * (equal to or higher than 100% but lower than 120%)

## COc1ccc(F)c(-c2nc3ccc(C4CCN(C)CC4)cc3c(=O)[nH]2)c1 [Example 49, 2-(2-fluoro-5-methoxyphenyl)-6-(1-methylpiperidin-4-yl)quinazolin-4(3H)-one]
  Percentage of increase (FL-SMN mRNA standardized against GAPDH, DMSO control set as 100%): * (equal to or higher than 100% but lower than 120%)

## Cc1cn2cc(-c3nc4ccc(N5CCN(C)CC5)cc4c(=O)[nH]3)nc2c(C)n1 [Example 50, 2-(6,8-dimethylimidazo[1,2-a]pyrazin-2-yl)-6-(4-methylpiperazin-1-yl)quinazolin-4(3H)-one]
  Percentage of increase (FL-SMN mRNA standardized against GAPDH, DMSO control set as 100%): ** (equal to or higher than 120% but lower than 150%)

## COc1cc2nc(-c3cc4c(C)nc(C)cn4n3)[nH]c(=O)c2cc1C1CCN(C)CC1 [Example 51, 2-(4,6-dimethylpyrazolo[1,5-a]pyrazin-2-yl)-7-methoxy-6-(1-methylpiperidin-4-yl)quinazolin-4(3H)-one]
  Percentage of increase (FL-SMN mRNA standardized against GAPDH, DMSO control set as 100%): * (equal to or higher than 100% but lower than 120%)

## COc1cc(C2CCN(C)CC2)cc2c(=O)[nH]c(-c3cc4c(C)nc(C)cn4n3)nc12 [Example 52, 2-(4,6-dimethylpyrazolo[1,5-a]pyrazin-2-yl)-8-methoxy-6-(1-methylpiperidin-4-yl)quinazolin-4(3H)-one]
  Percentage of increase (FL-SMN mRNA standardized against GAPDH, DMSO control set as 100%): ** (equal to or higher than 120% but lower than 150%)

## Cc1cn2cc(-c3nc4ccc(N5CCN(C)CC5)cc4c(=O)[nH]3)cc(F)c2n1 [Example 53, 2-(8-fluoro-2-methylimidazo[1,2-a]pyridin-6-yl)-6-(4-methylpiperazin-1-yl)quinazolin-4(3H)-one]
  Percentage of increase (FL-SMN mRNA standardized against GAPDH, DMSO control set as 100%): ** (equal to or higher than 120% but lower than 150%)

## Cc1nc(C)c2cc(-c3nc4ccc(N5CCN(C)CC5)cc4c(=O)[nH]3)nn2c1C [Example 54, 6-(4-methylpiperazin-1 - yl)-2-(4,6,7-trimethylpyrazolo[1,5-a]pyrazin-2-yl)quinazolin-4(3H)-one]
  Percentage of increase (FL-SMN mRNA standardized against GAPDH, DMSO control set as 100%): * (equal to or higher than 100% but lower than 120%)

## Cc1cn2cc(-c3nc4ccc(N5CCN(C)CC5)cc4c(=O)[nH]3)cc(C)c2n1 [Example 55, 2-(2,8-dimethylimidazo[1,2-a]pyridin-6-yl)-6-(4-methylpiperazin-1-yl)quinazolin-4(3H)-one]
  Percentage of increase (FL-SMN mRNA standardized against GAPDH, DMSO control set as 100%): ** (equal to or higher than 120% but lower than 150%)

## Cc1cn2cc(-c3nc4cc(F)c(N5CCN(C)CC5)cc4c(=O)[nH]3)cc(F)c2n1 [Example 56, 7-fluoro-2-(8-fluoro-2-methylimidazo[1,2-a]pyridin-6-yl)-6-(4-methylpiperazin-1-yl)quinazolin-4(3H)-one]
  Percentage of increase (FL-SMN mRNA standardized against GAPDH, DMSO control set as 100%): ** (equal to or higher than 120% but lower than 150%)

## Cc1cn2cc(-c3nc4cc(F)c(N5CCN(C)CC5)cc4c(=O)[nH]3)cc(C)c2n1 [Example 57, 2-(2,8-dimethylimidazo[1,2-a]pyridin-6-yl)-7-fluoro-6-(4-methylpiperazin-1 - yl)quinazolin-4(3H)-one]
  Percentage of increase (FL-SMN mRNA standardized against GAPDH, DMSO control set as 100%): ** (equal to or higher than 120% but lower than 150%)

## Cc1cn2cc(-c3nc4ccc(N5CCN(C)CC5)cc4c(=O)[nH]3)ccc2n1 [Example 58, 2-(2-methylimidazo[1,2-a]pyridin-6-yl)-6-(4-methylpiperazin-1-yl)quinazolin-4(3H)-one]
  Percentage of increase (FL-SMN mRNA standardized against GAPDH, DMSO control set as 100%): ** (equal to or higher than 120% but lower than 150%)

## Cc1nn(C)c2cc(F)c(-c3nc4ccc(N5CCN(C)CC5)cc4c(=O)[nH]3)cc12 [Example 59, 2-(6-fluoro-1,3-dimethyl-1H-indazol-5-yl)-6-(4-methylpiperazin-1-yl)quinazolin-4(3H)-one]
  Percentage of increase (FL-SMN mRNA standardized against GAPDH, DMSO control set as 100%): * (equal to or higher than 100% but lower than 120%)

## Cc1cn2cc(-c3ccc4nc(C5CCN(C)CC5)[nH]c(=O)c4c3C)ccc2n1 [Example 60, 5-methyl-6-(2-methylimidazo[1,2-a]pyridin-6-yl)-2-(1-methylpiperidin-4-yl)quinazolin-4(3H)-one]
  Percentage of increase (FL-SMN mRNA standardized against GAPDH, DMSO control set as 100%): ** (equal to or higher than 120% but lower than 150%)

## Cc1cn2c(C)c(-c3ccc4nc(C5CCN(C)CC5)[nH]c(=O)c4c3)ccc2n1 [Example 61, 6-(2,5-dimethylimidazo[1,2-a]pyridin-6-yl)-2-(1-methylpiperidin-4-yl)quinazolin-4(3H)-one]
  Percentage of increase (FL-SMN mRNA standardized against GAPDH, DMSO control set as 100%): * (equal to or higher than 100% but lower than 120%)

## Cc1cn2cc(-c3cc4c(=O)[nH]c(C5CCN(C)CC5)nc4cc3C)ccc2n1 [Example 62, 7-methyl-6-(2-methylimidazo[1,2-a]pyridin-6-yl)-2-(1-methylpiperidin-4-yl)quinazolin-4(3H)-one]
  Percentage of increase (FL-SMN mRNA standardized against GAPDH, DMSO control set as 100%): * (equal to or higher than 100% but lower than 120%)

## Cc1cn2cc(-c3ccc4nc(C5CCN(C)CC5)[nH]c(=O)c4c3)c(C)cc2n1 [Example 63, 6-(2,7-dimethylimidazo[1,2-a]pyridin-6-yl)-2-(1-methylpiperidin-4-yl)quinazolin-4(3H)-one]
  Percentage of increase (FL-SMN mRNA standardized against GAPDH, DMSO control set as 100%): * (equal to or higher than 100% but lower than 120%)

## Cc1cn2cc(-c3nc4ccc(N5CCN(C)CC5)cc4c(=O)[nH]3)cc2c(C)n1 [Example 64, 2-(1,3-dimethylpyrrolo[1,2-a]pyrazin-7-yl)-6-(4-methylpiperazin-1-yl)quinazolin-4(3H)-one]
  Percentage of increase (FL-SMN mRNA standardized against GAPDH, DMSO control set as 100%): * (equal to or higher than 100% but lower than 120%)

## CN1CCC(c2nc3ccc(-c4ccc5nccn5c4)cc3c(=O)[nH]2)CC1 [Example 65, 6-(imidazo[1,2-a]pyridin-6-yl)-2-(1-methylpiperidin-4-yl)quinazolin-4(3H)-one]
  Percentage of increase (FL-SMN mRNA standardized against GAPDH, DMSO control set as 100%): ** (equal to or higher than 120% but lower than 150%)

## CN1CCC(c2nc3ccc(-c4ccc5nc(C(F)(F)F)cn5c4)cc3c(=O)[nH]2)CC1 [Example 66, 2-(1-methylpiperidin-4-yl)-6-[2-(trifluoromethyl)imidazo [1,2-a]pyridin-6-yl]quinazolin-4(3H)-one]
  Percentage of increase (FL-SMN mRNA standardized against GAPDH, DMSO control set as 100%): * (equal to or higher than 100% but lower than 120%)

## Cc1nc2ccc(-c3ccc4nc(C5CCN(C)CC5)[nH]c(=O)c4c3)cn2c1C [Example 67, 6-(2,3-dimethylimidazo[1,2-a]pyridin-6-yl)-2-(1-methylpiperidin-4-yl)quinazolin-4(3H)-one]
  Percentage of increase (FL-SMN mRNA standardized against GAPDH, DMSO control set as 100%): ** (equal to or higher than 120% but lower than 150%)

## CCc1cn2cc(-c3ccc4nc(C5CCN(C)CC5)[nH]c(=O)c4c3)ccc2n1 [Example 68, 6-(2-ethylimidazo[1,2-a]pyridin-6-yl)-2-(1-methylpiperidin-4-yl)quinazolin-4(3H)-one]
  Percentage of increase (FL-SMN mRNA standardized against GAPDH, DMSO control set as 100%): * (equal to or higher than 100% but lower than 120%)
